Structures are written as SMILES.

A short description of this data set: gradient 5% acetonitrile 3 min, to 50% in 2 min, to 85% in 15 min, held 3 min, 100 µL/min. The following applies: column: Zorbax Extend-C18 2.1 x 50 mm; eluents: water / acetonitrile, 0.1% formic acid. The gist of the method: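 Using water and acetonitrile that each contained 0.1% formic acid, mixtures of ~100 pure standards were separated at 100 μL/min on a Zorbax Extend-C18 column (2.1 × 50 mm, 1.8 μm). The HPLC fed a quadrupole time-of-flight mass spectrometer working in positive and negative ionization mode, with dead and dwell volumes of 40 μL and 900 μL. Data were acquired over 3 months. Retention time was read from computationally picked adduct peaks after manual inspection of each.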
For the compound `Cn1ccc(C(=O)N2CC(n3cc(COc4ccc(F)cc4)nn3)C2)n1`, the RP-LC retention time was 722 s. In turn, `Cc1c(-c2ccnc(N3CCCCC3)n2)cnc2nc(-c3ccc(Cl)cc3)nn12` had an RP-LC retention time of 1400 s. On to `COc1ccc(S(=O)(=O)N2CC3CN(C(=O)CC(C)C)CC(C2)O3)cc1`, for which the RP-LC retention time turned out to be 759 s. With `COCCn1c(CCCC(=O)NCc2cccnc2)nc2cccnc21`, the RP-LC retention time was determined as 534 s. Consider `Cc1nnsc1C(=O)N1CCC(C(=O)NCC(F)(F)F)CC1`, for which the RP-LC retention time was determined as 614 s.

`CCN(CC)CCNCc1ccc(-c2ccccc2F)o1`: the RP-LC retention time amounted to 562 s. In turn, `CCCC(=O)N1CCc2c(c(C(=O)N3CCCC(C(=O)Nc4ccccc4C)C3)nn2C)C1` (stereo unspecified) returned an RP-LC retention time of 759 s. As for `CC(C)CN1CCN(C(=O)c2cn3cc(Cl)ccc3n2)CC1`, the RP-LC retention time turned out to be 577 s. Compound `Oc1ccc2c3c1O[C@H]1c4oc5ccccc5c4C[C@@]4(O)C(C2)N(CC2CC2)CCC314` (stereo partly specified) showed an RP-LC retention time of 702 s.

`CCOC(=O)C1CCCN(CC(O)COc2ccccc2C(C)=O)C1` (stereo unspecified) yielded an RP-LC retention time of 556 s. As for `CCCCNC(=O)C1CCN(C(=O)c2cc3ccsc3n2Cc2ccc(Cl)cc2)CC1`, the RP-LC retention time was 1010 s. As for `Clc1ccc(Cl)c(-c2ccc(CNCc3ccco3)o2)c1`, the RP-LC retention time turned out to be 737 s.

In turn, `Cn1nc(C(=O)N2CCCC(C(=O)NC3CC3)C2)c2c1CCN(C(=O)Cc1cccc(F)c1)C2` (stereo unspecified) came in with an RP-LC retention time of 666 s. The compound `CCOC(=O)N1CCN(C(=O)C2CN(c3nc4ccc(OC)cc4s3)C2)CC1` gave an RP-LC retention time of 650 s.

`O=C1[C@H]2CN(Cc3cc(F)cc(F)c3)C[C@H]2C(=O)N1CCc1ccccc1`: the RP-LC retention time stood at 957 s. For `Cc1[nH]c(=O)[nH]c(=O)c1S(=O)(=O)NC1CC2CCC1C2` (stereo unspecified) the value was 658 s; for `Cc1ncoc1C(=O)N1CCC(F)(F)C(COCC2CC2)C1` (stereo unspecified), 789 s. For `CC(C)CC(=O)N1CCc2c(c(-c3nnc(-c4ccccc4Cl)o3)nn2C)C1` the value was 852 s; for `O=C(Cc1cccs1)N1CCCC(c2nncn2-c2ccccc2)C1` (stereo unspecified), 663 s. Turning to `CCOc1ccc2ncc(C#N)c(NCc3ccc(OC)c(OC)c3)c2c1`, the RP-LC retention time was 663 s. In turn, `CC(C)c1ccc(Nc2c(-c3ccccc3O)nc3ncccn23)cc1` had an RP-LC retention time of 800 s. Compound `O=C(Cc1cccs1)N1CCN(C(=O)c2cc3ccccc3[nH]2)CC1` came in with an RP-LC retention time of 767 s. `O=C(NC1CCN(c2nnc3ccc(C(F)(F)F)cn23)CC1)c1cccc(F)c1`: the RP-LC retention time was determined as 782 s. As to `COc1ccc2[nH]c3c(c2c1)CCN1C(=O)N(c2ccc(Cl)c(Cl)c2)C(=O)C31C` (stereo unspecified), the RP-LC retention time was found to be 1120 s. `O=C(Cc1ccc(F)cc1)N1CCC2(CC1)N=C(c1ccc(Cl)cc1)NO2`: the RP-LC retention time turned out to be 889 s.

For `Cc1nc(CCNS(=O)(=O)c2ccc(Cl)cc2)no1`, the RP-LC retention time worked out at 769 s.

In turn, `COc1ccccc1N1CCN(C(=O)c2cc(S(=O)(=O)N3CCCCC3)cn2C)CC1` had an RP-LC retention time of 893 s. For `CCc1nn(C(C)C(=O)NCCc2c[nH]c3ccccc23)c(=O)c2cc3occc3n12` (stereo unspecified) the value was 851 s; for `Cc1cc(NC(=O)C2CCCN(c3ncnc4c3nc3n4CCCCC3)C2)no1` (stereo unspecified), 751 s. Compound `CCN1CCN(CCNC(=O)c2cc(-c3ccc(C)cc3)cn2C)CC1` gave an RP-LC retention time of 626 s. The compound `O=C(NCCn1ccc2ccccc21)C(=O)c1c[nH]c2ccccc12` showed an RP-LC retention time of 899 s. In turn, `Cc1nc(C)c(C(=O)N2CCCCCCNC(=O)[C@@H]3CCC[C@@H]32)s1` had an RP-LC retention time of 680 s. The compound `CC1=C(c2ccc(C)cc2)S(=O)(=O)N=C1N1CCCN(C(=O)C(C)(C)C)CC1` yielded an RP-LC retention time of 858 s.

In turn, `O=C(Nc1ccc(F)cc1)N1CCCCCC1` yielded an RP-LC retention time of 738 s. In turn, `CCN1C(=O)CCc2cc(NS(=O)(=O)c3ccc(F)c(C)c3)ccc21` registered an RP-LC retention time of 834 s. As for `Cc1nc(-c2cn(C(C)C)c3ncccc23)sc1C(=O)NCCC(C)C`, the RP-LC retention time came to 1070 s. In turn, `O=C(Cn1ccnc1-c1ccnc(N2CCSCC2)c1)NCc1ccc(F)cc1` returned an RP-LC retention time of 653 s. On to `CCC1CCCCN1C(=O)c1cnc2nc(C)ccc2c1Nc1ccc(C)cc1` (stereo unspecified), for which the RP-LC retention time is 674 s.

With `Cc1cc(=O)n(CC(=O)Nc2ccccc2F)c(-c2ccc(F)cc2)n1`, the RP-LC retention time was determined as 1040 s. For the compound `O=C(NCc1ccccc1C(F)(F)F)c1ccc2c(c1)ncn2CCN1CCCC1`, the RP-LC retention time amounted to 599 s.

Compound `CCCn1cc(C(=O)Nc2cccc(F)c2)c(S(=O)(=O)N2CCC(C)CC2)n1` registered an RP-LC retention time of 1220 s. As for `Cc1ccc(NS(=O)(=O)c2cc(-c3cc(C(F)(F)F)on3)sc2C)c(Cl)c1`, the RP-LC retention time was 1220 s.

The compound `Fc1ccccc1N1CCN(Cc2nc(-c3ccc(N4CCSCC4)nc3)no2)CC1` returned an RP-LC retention time of 1030 s. `Cc1noc(C)c1CC(=O)NCC12CCC=C1NC(=O)CC2` (stereo unspecified): the RP-LC retention time was 632 s. The compound `Cc1nc([C@@H]2CN(C(=O)CCc3nc4ccccc4s3)C[C@H]2C(N)=O)n[nH]1` showed an RP-LC retention time of 599 s. `Cc1ccc(-c2nnc(CC(=O)NC3CCCC3)o2)cc1` showed an RP-LC retention time of 797 s.

For `CCCn1c(=O)c2cc(C(=O)N3CCN(c4ccccc4)CC3)nn2c2ccccc21`, the RP-LC retention time was 1030 s. In the case of `CCCc1nc(-c2ccccc2)oc1CC(=O)Nc1ccc(Cl)cc1C`, the RP-LC retention time came out at 1090 s. Compound `O=C(c1ccco1)N1CC(Oc2cccc(-c3nc(-c4ccccc4)no3)c2)C1` yielded an RP-LC retention time of 1120 s. In the case of `CCOC(=O)NCC1CCN(S(C)(=O)=O)CC1`, the RP-LC retention time amounted to 603 s. As for `CC(C)Cn1c(=O)c2cc(C(=O)NC(C)c3ccco3)nn2c2ccccc21` (stereo unspecified), the RP-LC retention time turned out to be 1030 s.

Compound `CCC1(C(=O)OC)CCc2c(cc(OC)c3ccccc23)C1=O` (stereo unspecified) registered an RP-LC retention time of 1250 s. `O=S(=O)(NCCCN1CCOC(c2ccccc2)C1)c1ccccc1Cl` (stereo unspecified) registered an RP-LC retention time of 576 s.

Turning to `O=C(Nc1ccc(N2CCN(C3CCCC3)C2=O)nc1)c1ccccc1`, the RP-LC retention time was 817 s. For `CC(C)n1c(=O)sc2cc(S(=O)(=O)N3CCC(C(=O)NCc4cccs4)CC3)ccc21` the value was 885 s. As for `COc1ccc(S(=O)(=O)NCc2ccc3c(c2)CCN3C(=O)c2ccc(F)cc2)cc1`, the RP-LC retention time stood at 927 s. The compound `CCCCOc1ccc(-c2nc(C3CC(=O)N(c4ccc(OC)cc4)C3)no2)cc1` (stereo unspecified) registered an RP-LC retention time of 1200 s. For `CCCCC(=O)N1CCCN(C2=NS(=O)(=O)C(c3ccc(C)cc3)=C2C)CC1` the value was 855 s; for `Cc1nn(C(C)C(=O)N2CCOCC2)c(=O)c2nn(-c3ccccc3)c(C)c12` (stereo unspecified), 684 s.

The compound `O=C(Cn1c(=O)c2cc(C3CC3)nn2c2ncccc21)Nc1cccc(F)c1` gave an RP-LC retention time of 778 s. For `CC1=C(c2ccc(C)c(C)c2)S(=O)(=O)N=C1N1CCCN(C(=O)NCC(C)C)CC1` the value was 853 s; for `O=C1CCCc2cc(S(=O)(=O)N3CCC(C(=O)N4CCCCCC4)CC3)ccc2N1`, 716 s; for `Cc1coc2cc3oc(=O)c(CC(=O)N4CCC(C(N)=O)CC4)c(C)c3cc12`, 654 s. Turning to `Cn1cccc1C(=O)C(=O)Nc1ccc(Cl)cc1F`, the RP-LC retention time was 1080 s.

With `O=C1CC[C@@H](C(=O)N2CSC[C@H]2C(=O)O)N1`, the RP-LC retention time amounted to 562 s. On to `CC(C)c1ccc(N2C(=O)C3N=NN(Cc4nc(-c5ccccc5Cl)no4)C3C2=O)cc1` (stereo unspecified), for which the RP-LC retention time was 1100 s. The compound `O=C(CS(=O)(=O)Cc1ccccc1)Nc1nc(-c2ccccn2)cs1` returned an RP-LC retention time of 614 s. `CCN(CC)S(=O)(=O)c1ccc2c(c1)CC(C(=O)NC1CCCCCCC1)N2C(C)=O` (stereo unspecified) showed an RP-LC retention time of 959 s. The compound `Cc1nc(OCC(=O)NC2CCCCC2)c2c(-c3ccccc3)noc2n1` showed an RP-LC retention time of 1010 s.

The compound `Cc1cccc(-c2noc(-c3nn(CC(=O)NCc4cccs4)c4ccccc34)n2)c1` registered an RP-LC retention time of 1140 s. `COc1ccc(NC(=O)c2cn(-c3cc(N(C)C)ncn3)cn2)cc1OC` had an RP-LC retention time of 678 s. Regarding `Cc1nc(C(=O)Nc2ccc(F)c(C)c2)c(C)o1`, the RP-LC retention time stood at 918 s. For `COCCN1CCC(N2CCN(C(=O)C3(c4ccccc4)CC3)CC2)C1=O` (stereo unspecified) the value was 542 s; for `Nc1nc(Cl)nc2c1ncn2[C@@H]1O[C@H](CO)[C@@H](O)[C@H]1O`, 590 s; for `CCc1nc(-c2cc(S(=O)(=O)NCC(=O)N3CCN(c4ccc(F)cc4)CC3)c(C)s2)no1`, 959 s.

Regarding `Cc1nc(-c2cn(C)c3ncccc23)sc1C(=O)NC1CCCCCC1`, the RP-LC retention time is 995 s. In turn, `CCNc1ncnc2sc3c(c12)CCN(C(=O)CC)C3` registered an RP-LC retention time of 617 s. For `COc1ccccc1-c1nc(-c2cn(-c3cccc(Cl)c3)nn2)no1` the value was 1050 s. `Cc1c(OCC(N)=O)ccc2c1O/C(=C\c1ccc3c(c1)OCO3)C2=O` displayed an RP-LC retention time of 714 s.

`COc1ccc(NC(=O)N2CC(C)Oc3ccc(C)cc32)cc1` (stereo unspecified) gave an RP-LC retention time of 945 s. For `COc1ccccc1-c1c(C(F)(F)F)oc2cc(OC(=O)C3CC3)ccc2c1=O` the value was 1080 s.

The values above are taken from the METLIN SMRT retention time set (Domingo-Almenara et al. 2019).
